Like-named read-outs stand apart in the source and are kept apart here. Where only a bound is given, the exact number is not on record here.

Data on 27 compounds can be found in patent US20240352046A1, “ECTONUCLEOTIDE PYROPHOSPHATASE-PHOSPHODIESTERASE-1 (ENPP1) INHIBITORS AND USES THEREOF” (1cBio, Inc., priority 2020, published 2024).

The test system of assay [1] is IP-10 release in differentiated THP-1 cells. Kind of assay: IP-10 cytokine release assay in THP-1 cell lines. The format is cell-based, Human. To be noted: for EC50: Homo sapiens. On the procedure: Percent release of Interferon gamma-induced protein 10 (IP-10) was determined in acute monocytic leukemia (THP-1; ATCC® TIB-202™) cell line. THP-1 cells (0.2×10^6 cells/well) were differentiated using phorbol 12-myristate 13-acetate (PMA, 10 nM (final concentration); Cat #P8139, Sigma) and incubated for 24 h at 37° C., 5% CO2 in an incubator (cell culture conditions) prior to treating with serial dilutions of compounds (3 fold, 6 point dose response starting at 10 μM). After treatment with the compounds cells were further incubated for 2 h under cell culture conditions and then exposed to 2′,3′-cGAMP (c-GAMP, 1 μM (final concentration); Cat #SML 1229, Sigma). Differentiated THP-1 cells were further cultured for 24 h after which the supernatant was harvested, and ELISA was performed as per the manufacturer's protocol (BD optEIA Human IP-10 ELISA Set; Cat #550926 & 550534, BD Biosciences). Plates were read in Biotek plate reader by measuring absorbance at 450 nm.
The release of absolute IP-10 in differentiated THP-1 by compounds in the presence of cGAMP was quantified with reference to standard after subtracting blank (negative) reading from the test readings. The absolute release of IP-10 in the presence of cGAMP (1 μM) is given in the bar-graph (FIG.-1) and in the table-B2a.
The release of IP-10 in differentiated THP-1 by compounds over cGAMP induced release at four different concentrations of cGAMP (1, 5, 10 & 30 μM) was quantified with reference to standard by normalizing the blank (negative) subtracted test readings from average of cGAMP activated cells at that particular concentration. The EC50's was calculated by fitting the curve to the “four-parameter variable slope logistic model” using Prism Graph Pad.

The target in assay [2] is ENPP-1 (Ectonucleotide Pyrophosphatase/Phosphodiesterase 1) (Homo sapiens (Human), UniProt P22413). Kind of assay: ENPP1 inhibition assay (AMP Glo, cGAMP substrate). The format is biochemical.
Setting [3] is: THP-1, read-out: EC50 (μM)@ 1 μM of cGAMP.
The mark [4] stands for this setting: read-out: EC50 (μM)@ 1 μM of cGAMP, IP-10 release over cGAMP induced release, THP-1, 1 μM cGAMP.
[5] abbreviates: cGAMP 20 μM substrate, ENPP1 1 nM.

ENPP-1 (Ectonucleotide Pyrophosphatase/Phosphodiesterase 1), sequence (P22413 whole entry): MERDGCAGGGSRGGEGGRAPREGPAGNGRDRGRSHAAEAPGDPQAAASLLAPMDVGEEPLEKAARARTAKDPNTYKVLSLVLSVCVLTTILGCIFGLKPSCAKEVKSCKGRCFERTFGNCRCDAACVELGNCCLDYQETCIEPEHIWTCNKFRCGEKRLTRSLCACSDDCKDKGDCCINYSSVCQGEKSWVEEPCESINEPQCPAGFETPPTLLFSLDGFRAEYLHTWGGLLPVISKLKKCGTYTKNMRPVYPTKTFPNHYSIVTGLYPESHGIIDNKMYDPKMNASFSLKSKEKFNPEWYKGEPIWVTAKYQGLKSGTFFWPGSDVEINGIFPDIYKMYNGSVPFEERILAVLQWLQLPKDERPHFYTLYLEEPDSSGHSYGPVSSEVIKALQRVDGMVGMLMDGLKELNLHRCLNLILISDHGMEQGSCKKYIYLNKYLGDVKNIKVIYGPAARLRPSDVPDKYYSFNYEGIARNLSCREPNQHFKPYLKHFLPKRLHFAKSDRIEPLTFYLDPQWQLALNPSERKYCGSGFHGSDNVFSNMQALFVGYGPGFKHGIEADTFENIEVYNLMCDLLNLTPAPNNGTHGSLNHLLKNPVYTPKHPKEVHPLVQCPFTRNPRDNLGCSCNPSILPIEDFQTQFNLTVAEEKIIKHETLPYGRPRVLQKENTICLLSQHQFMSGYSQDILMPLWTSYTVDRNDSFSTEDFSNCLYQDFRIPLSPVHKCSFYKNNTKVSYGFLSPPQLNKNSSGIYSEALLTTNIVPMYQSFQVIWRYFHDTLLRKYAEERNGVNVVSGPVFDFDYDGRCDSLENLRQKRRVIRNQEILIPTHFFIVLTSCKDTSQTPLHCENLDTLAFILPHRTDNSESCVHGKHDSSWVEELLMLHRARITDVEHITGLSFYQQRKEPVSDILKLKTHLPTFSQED

On to `Nc1nc2c(ncn2[C@@H]2O[C@@H]3COP(=O)(O)O[C@H]4[C@@H](O)[C@H](n5cnc6c(N)ncnc65)O[C@@H]4COP(=O)(O)O[C@@H]2[C@@H]3O)c(=O)[nH]1` [CGAMP, 2′,3′-cGAMP, reference compound], for which, in assay [1] (cGAMP (1 μM) alone, differentiated THP-1), the “Percent release IP-10 (Absolute)” value was determined as 5.6%.

On to `COc1cc2ncnc(N3CC(CCNC(C)=O)C3)c2cc1OC` [Compound 1.7, N-(2-[1-(6,7-dimethoxyquinazolin-4-yl)azetidin-3-yl]ethyl)acetamide], for which the EC50 in assay [1] (setting [3]) is above 30 µM.

As for `COc1cc2nc(C)nc(N3CC(CCNS(N)(=O)=O)C3)c2cc1OC` [Compound 1.17, 4-(3-(2-sulfamoylaminoethyl)azetidine-1-yl)-6,7-dimethoxy-2-methylquinazoline], in assay [1] (setting [3]), the EC50 came out at 0.129 µM. This compound also came in with a half-maximal inhibitory concentration (IC50) in assay [2] of 0.057 µM.

On to `CCOc1cccc2c(N3CC(CCNS(N)(=O)=O)C3)ncnc12` [Compound 1.19, 4-(3-(2-sulfamoylaminoethyl)azetidine-1-yl)-8-ethoxyquinazoline], for which the EC50 in assay [1] (setting [4]) is below 0.12 µM. For the same compound, in assay [2] (setting [5]), the IC50 was 0.084 µM.

`COc1cc2ncnc(N3CC(C)(CCNS(N)(=O)=O)C3)c2cc1OC` [Compound 1.22, 4-(3-Methyl-3-(2-sulfamoylaminoethyl)azetidine-1-yl)-6,7-dimethoxyquinazoline]: the EC50 in assay [1] (setting [4]) was 0.49 µM. The IC50 in assay [2] (setting [5]) came to 0.009 µM.

Turning to `COc1ccc2c(N3CC4(CC(NS(N)(=O)=O)C4)C3)ncnc2c1` [Compound 1.26, 4-(6-sulfamoylamino-2-azaspiro[3.3]heptan-2-yl)-7-methoxyquinazoline], the EC50 in assay [1] (setting [4]) is below 0.12 µM. In addition, the IC50 in assay [2] (setting [5]) stood at 0.006 µM.

For the compound `COc1cc2nncc(N3CC(CCNS(N)(=O)=O)C3)c2cc1OC` [Compound 1.27, 4-(3-(2-sulfamoylaminoethyl)azetidine-1-yl)-6,7-dimethoxycinnoline], in assay [1] (setting [4]), the EC50 was below 0.1 µM. In assay [2] (setting [5]), this compound returned an IC50 of 0.043 µM.

As for `COc1cc2nc(-c3ccncc3)nc(N3CC(CCNS(N)(=O)=O)C3)c2cc1OC` [Compound 1.35, 4-(3-(2-sulfamoylaminoethyl)azetidine-1-yl)-6,7-dimethoxy-2-(pyridin-4-yl)quinazoline], the EC50 in assay [1] (setting [4]) was above 30 µM. Besides, it took 0.099 µM to reach half-maximal inhibition in assay [2] (setting [5]) (IC50).

Consider `COc1cc2ncnc(N3CC4(CC(N(C)S(N)(=O)=O)C4)C3)c2cc1OC` [Compound 1.46, N-[2-(6,7-di-methoxyquinazoline-4-yl)-2-azaspiro[3.3]hept-6-yl]-N-methylsulfuric diamide], for which, in assay [1] (setting [4]), the EC50 was 0.912 µM. This compound also returned an IC50 in assay [2] (setting [5]) of 0.019 µM.

Regarding `COc1cc2ncnc(N3CC(CCN(C)S(N)(=O)=O)C3)c2cc1OC` [Compound 1.47, 4-(3-(2-sulfamoylmethylaminoethyl)azetidine-1-yl)-6,7-di-methoxyquinazoline], in assay [1] (setting [4]), the EC50 was found to be 19.9 µM.

With `COc1cc2ncnc(N3CC4(CC(N(C5CC5)S(N)(=O)=O)C4)C3)c2cc1OC` [Compound 1.48, N-[2-(6,7-di-methoxyquinazoline-4-yl)-2-azaspiro[3.3]hept-6-yl]-N-cyclopropylsulfuric diamide], the EC50 in assay [1] (setting [4]) is above 30 µM. In assay [2] (setting [5]), this compound had a half-inhibitory concentration (IC50) of 0.144 µM.

As to `COc1cc2ncnc(N3CC4(CC(NS(C)(=O)=O)C4)C3)c2cc1OC` [Compound 1.49, N-(2-(6,7-dimethoxyquinazolin-4-yl)-2-azaspiro[3.3]heptan-6-yl)methanesulfonamide], in assay [1] (setting [4]), the EC50 is above 30 µM. Moreover, the IC50 in assay [2] (setting [5]) is above 1.98 µM.

For `COc1cc(OC)c2ncnc(N3CC(CCNS(N)(=O)=O)C3)c2c1` [Compound 1.50, 4-(3-(2-sulfamoylaminoethyl)azetidine-1-yl)-6,8-di-methoxyquinazoline], the concentration giving a half-maximal response (EC50) in assay [1] (setting [4]) is above 30 µM. In assay [2] (setting [5]), half-maximal inhibition (IC50) was put at 1.48 µM.

In the case of `COc1cc2ncnc(N3CC(CCC(=O)NO)C3)c2cc1OC` [Compound 1.51, 3-(1-(6,7-dimethoxyquinazolin-4-yl)azetidin-3-yl)-N-hydroxypropanamide], the EC50 in assay [1] (setting [4]) is above 30 µM. Further, the IC50 in assay [2] (setting [5]) is 0.015 µM.

For `COc1cc2ncnc(N3CC(CCS(N)(=O)=O)C3)c2cc1OC` [Compound 1.52, 2-(1-(6,7-dimethoxyquinazolin-4-yl)azetidin-3-yl)ethanesulfonamide], the EC50 in assay [1] (setting [4]) was above 18.6 µM. The compound also gave an IC50 in assay [2] (setting [5]) of 0.043 µM.

With `COc1cc2ncnc(N3CC4(CC(C(=O)NO)C4)C3)c2cc1OC` [Compound 1.63, 2-(6,7-dimethoxyquinazolin-4-yl)-N-hydroxy-2-azaspiro[3.3]heptane-6-carboxamide], the EC50 in assay [1] (setting [4]) was below 0.12 µM.

On to `COc1cc2ncnc(N3CC(CCNS(N)(=O)=O)C3)c2cc1F` [Compound 1.66, 4-(3-(2-sulfamoylaminoethyl)azetidine-1-yl)-6-fluoro-7-methoxy quinazoline], for which, in assay [1] (setting [4]), the EC50 was below 0.12 µM. Moreover, in assay [2] (setting [5]), the IC50 was found to be 0.006 µM.

For the compound `COc1cc2ncnc(N3CC(CCCNS(N)(=O)=O)C3)c2cc1OC` [Compound 1.69, 4-3-(3-sulfamoylaminopropyl)azetidin-1-yl-6,7-dimethoxyquinazoline], in assay [1] (setting [4]), the EC50 stood at 0.724 µM.

`COCCN(C1CC2(C1)CN(c1ncnn3c(Cl)cc(C)c13)C2)S(N)(=O)=O` [Compound 1.122, N-(2-(7-chloro-5-methylpyrrolo[1,2-f][1,2,4]triazin-4-yl)-2-azaspiro[3.3]heptan-6-yl)-N-(2-methoxyethyl)sulfamamide] had an IC50 in assay [2] (setting [5]) of 0.062 µM.

Regarding `CN(C1CC2(C1)CN(c1ncnc3c(Cl)cn(C)c13)C2)S(N)(=O)=O` [Compound 1.123, N-(2-(7-chloro-5-methyl-5H-pyrrolo[3,2-d]pyrimidin-4-yl)-2-azaspiro[3.3]heptan-6-yl)-N-methylsulfamamide], in assay [2] (setting [5]), inhibition was half-maximal at 0.039 µM (IC50). This IC50 lies about 1.6-fold lower than the previous one.

In assay [2] (setting [5]), `CN(C1CC2(C1)CN(c1ncnc3[nH]cc(Cl)c13)C2)S(N)(=O)=O` [Compound 1.124, N-(2-(5-chloro-7,7α-dihydro-4αH-pyrrolo[2,3-d]pyrimidin-4-yl)-2-azaspiro[3.3]heptan-6-yl)-N-methylsulfamamide] displayed a 50% inhibitory concentration (IC50) of 1.86 µM.

As for `Cc1cc(Cl)n2ncnc(N3CC4(CC(N(CCF)S(N)(=O)=O)C4)C3)c12` [Compound 1.127, N-[2-(7-chloro-5-methylpyrrolo[2,1-f][1,2,4]triazin-4-yl)-2-azaspiro[3.3]hept-6-yl]-2-fluoroethylsulfuric diamide], in assay [2] (setting [5]), the IC50 worked out at 0.043 µM.

As to `Cc1cc(Cl)n2ncnc(N3CC4(CC(N(CC(C)(F)F)S(N)(=O)=O)C4)C3)c12` [Compound 1.128], half-maximal inhibition in assay [2] (setting [5]) (IC50) required 0.03 µM.

`Cc1cc(Cl)n2ncnc(N3CC4(CC(N(CC(F)(F)F)S(N)(=O)=O)C4)C3)c12` [Compound 1.129, N-(2-(7-chloro-5-methylpyrrolo[1,2-f][1,2,4]triazin-4-yl)-2-azaspiro[3.3]heptan-6-yl)-N-(2,2,2-trifluoroethyl)sulfamamide]: in assay [2] (setting [5]), it took 0.047 µM to reach half-maximal inhibition (IC50).

Take `COc1ccc2c(N3CC4(CC(N(CC(F)F)S(N)(=O)=O)C4)C3)ncnc2c1` [Compound 1.131, N-(2,2-difluoroethyl)-N-(2-(7-methoxyquinazolin-4-yl)-2-azaspiro[3.3]heptan-6-yl) sulfamamide]: the IC50 in assay [2] (setting [5]) was determined as 0.055 µM. This IC50 and that of the compound before are within 1.5-fold of each other.

In assay [2] (setting [5]), `Cc1cc(Cl)n2ncnc(N3CC4(CC(NCc5ccc(S(N)(=O)=O)cc5)C4)C3)c12` [Compound 1.132, 4-(((2-(7-chloro-5-methylpyrrolo[2,1-f][1,2,4]triazin-4-yl)-2-azaspiro[3.3]heptan-6-yl)amino)methyl)benzenesulfonamide] yielded an IC50 of 0.181 µM.

Take `Cc1cc(Cl)n2ncnc(N3CC4(CC(N(C)Cc5ccc(S(N)(=O)=O)cc5)C4)C3)c12` [Compound 1.133, 4-(((2-(7-chloro-5-methylpyrrolo[2,1-f][1,2,4]triazin-4-yl)-2-azaspiro[3.3]heptan-6-yl)(methyl)amino)methyl)benzenesulfonamide]: the midpoint of inhibition in assay [2] (setting [5]), the IC50, lay at 0.27 µM.

Broadly, the EC50 is the concentration that produces a half-maximal response. Usually IC50 stands for the concentration needed to halve the response being measured.
